Earlier results, collected in patent publication US20210059959A1, “USE OF CANNABINOIDS IN THE TREATMENT OF MENTAL DISORDERS” (GW Pharma Limited, priority 2015, published 2021).

System: rats treated with MK-801
Settings: cited from earlier work

## C=C(C)[C@@H]1CCC(C)=C[C@H]1c1c(O)cc(CCCCC)cc1O [CBD, Cannabidiol]
  Effect on social deficits: reverse social deficits
